Data: the METLIN SMRT retention time set (Domingo-Almenara et al. 2019)

Assay: gradient 5% acetonitrile 3 min, to 50% in 2 min, to 85% in 15 min, held 3 min, 100 µL/min
Conditions: column: Zorbax Extend-C18 2.1 x 50 mm; eluents: water / acetonitrile, 0.1% formic acid
How it was run: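 The mobile phases were water and acetonitrile, each with 0.1% formic acid, pumped at 100 μL/min through a Zorbax Extend-C18 column (2.1 × 50 mm, 1.8 μm). Pure standards were injected as mixtures of ~100 molecules and detected by a quadrupole time-of-flight mass spectrometer in positive and negative ionization mode. Retention time came from computationally picked adduct peaks, each inspected by hand.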

Compound	RP-LC retention time
COCC1(O)CCOC2(CCN(Cc3ccccc3C)CC2)C1 (stereo unspecified)	591 s
Cc1cccc(S(=O)(=O)N(C)CC2CCOCC2)c1	863 s
O=C(Nc1ccc(F)cc1)C1CCCN(c2ncnc3c2nc2n3CCCCC2)C1 (stereo unspecified)	803 s
COc1ccc(C2(C(=O)N3CCC4(CC3)C(OC)C(=O)N4c3cccc(F)c3)CC2)cc1 (stereo unspecified)	901 s
CCn1cnc(S(=O)(=O)N2CCC(C(=O)N3CCN(c4ccccn4)CC3)CC2)c1	556 s
c1ccc2c(N3CCNCC3)cccc2c1	690 s
C=CCn1nc2ccc(S(=O)(=O)N3CCSCC3)cn2c1=O	744 s
CC(C)N1CCN(C(=O)c2n[nH]c3c2CCCC3)CC1	558 s
CCOC(=O)C1CCN(c2cc3c(cc2NC(=O)CC)n(C)c(=O)c(=O)n3C)CC1	724 s
Cc1oc(-c2ccc(NC(=O)Cc3ccccc3Cl)cc2)nc1Cn1cccn1	899 s
CCOc1cc(=O)n2c(c1C(=O)N1CCOCC1)CCCCC2	601 s
COCC1(O)CCOC2(CCN(Cc3ccc(F)cc3)CC2)C1 (stereo unspecified)	654 s
COc1ccc2c(c1)C1(CCN(C(=O)Cc3cccc(F)c3)C1)C(=O)N2C (stereo unspecified)	788 s
CCC1CCCCN1CCCNC(=O)CCc1cc2cc(C)ccc2[nH]c1=O (stereo unspecified)	600 s
O=[N+]([O-])/C=C/c1cc2ccccc2[nH]1	718 s
CC[C@H](Nc1ncnc2nc[nH]c12)c1nc2cccc(F)c2c(=O)n1-c1ccccc1	714 s
COCCNC(=O)N1CCCC(C)(C(=O)NCc2ccccc2)C1 (stereo unspecified)	639 s
O=C(Cc1nnc(-c2ccc3ncccc3c2)o1)Nc1cc(F)cc(F)c1	784 s
CCOc1ccc(-c2ccc(N3CCN(C(=O)c4ccc5ncsc5c4)CC3)nn2)cc1	629 s
CCc1nc(-c2cccc(-c3noc(CNC(=O)Cc4ccccc4)n3)c2)cs1	1000 s
Cn1c(NC(=O)C2CC2)cc(=O)n(C)c1=O	605 s
CC(=O)N1CCC2(CC1)OC(=O)C(C)=C2C(=O)NCCCN1CC(C)CC(C)C1 (stereo unspecified)	587 s
Cc1cc(C)c(NC(=O)CN2C(=O)NC3(CCC(C)CC3)C2=O)c(C)c1 (stereo unspecified)	570 s
Cn1cc(S(=O)(=O)N2CCOCC2)cc1C(=O)N1CCN(c2ccc(F)cc2)CC1	806 s
O=C(NCCn1ccc2ccccc21)C(=O)c1c[nH]c2ccccc12	899 s
Cc1nc(-c2cc(S(=O)(=O)NCCCN3CCCC(C)C3)c(C)s2)sc1C (stereo unspecified)	704 s

Compound	RP-LC retention time
O=C(Nc1cnc(-c2cccnc2)nc1)C1CCCCC1	681 s
O=C(c1cc2c(s1)CCC(C(=O)N1CCOCC1)C2)N1CCCCC1 (stereo unspecified)	701 s
O=C(NC1CCCCC1)c1nc(Nc2ccccc2)c2ccccc2n1	861 s
Cc1ccc(CNC(=O)C2CCCN(S(=O)(=O)c3c[nH]c(C(=O)N4CCCCCC4)c3)C2)cc1 (stereo unspecified)	883 s
CCSc1ccccc1C(=O)NCc1ccsc1	786 s
CCNC(=O)c1cc(C(C)(C)C)[nH]n1	647 s
O=C(NC1CCN(c2ccc(F)cc2)C1=O)c1ccccc1C(F)(F)F (stereo unspecified)	823 s
O=C(NCc1ccco1)Nc1cccn2c(C3CCC3)nnc12	694 s
Cc1ccc(C(=O)Nc2cnc(-c3cccc(Cl)c3)nc2)s1	1140 s
O=C(CN1C(=O)CC(c2ccccc2)=Nc2ccccc21)NCc1ccccc1	919 s
CCOC(=O)c1cnc2nc(C)ccc2c1Nc1ccc(F)cc1F	716 s
CC(C)CN(CC(C)C)c1nc(-c2ccc([N+](=O)[O-])cc2)nc2ccccc12	1250 s
CC(C)c1nn2c(S(=O)(=O)NC3CCCCC3)c(C(C)C)nc2s1	1110 s
Cc1noc(-c2nn(C)c3c2CN(C(=O)CC2CCCC2)CC3)n1	759 s
O=C(c1ccc(OCC2CCCN2C(=O)COc2ccc(F)cc2)cc1)N1CCCC1 (stereo unspecified)	761 s
O=C(CC1CCN(S(=O)(=O)c2ccc(Cl)s2)CC1)N1CCCCC1	946 s
O=C(NCc1ccc(F)cc1F)c1ccc(Cn2c(C(F)(F)F)nc3cccnc32)cc1	925 s
NC(=O)C1CCN(Cc2nc(-c3ccc(N4CCOCC4)nc3)no2)CC1	563 s
Cc1cc2c(cc1C(=O)NCc1cccs1)OCCCO2	804 s
COc1cccc2c1OC1(CCN(C(C)=O)CC1)N1N=C(c3cccs3)CC21 (stereo unspecified)	835 s
COCCNC(=O)C(=O)NCCC(O)C(C)(C)C (stereo unspecified)	614 s
O=C(NCc1nnc2n1CCCC2)c1ccc2c(c1)OCO2	1260 s
Cc1sc(-c2noc(C(C)C)n2)cc1S(=O)(=O)N1CCC(C(=O)NC2CCCCC2)CC1	1090 s
CCOCC(=O)N1C[C@H]2C[C@H](C1)[C@H]1CCCC(=O)N1C2	582 s
COc1ccc(-c2noc(-c3ccc(N4CCN(c5cccc(OC)c5)CC4)nc3)n2)cc1	1340 s

Further lines, results first:

RP-LC retention time	Compound
869 s	COC(=O)c1cc(S(=O)(=O)N2CCCC2C(=O)Nc2ccc(C)cc2)cn1C (stereo unspecified)
627 s	CN1CCN(S(=O)(=O)c2ccc3nn(CCc4ccccc4)c(=O)n3c2)CC1
808 s	COc1ccc(-c2nnc(NC(=O)c3ccc(S(=O)(=O)N(C)C)cc3)s2)c(OC)c1
610 s	COc1ccc(Nc2nc(N)c3ccccc3n2)cc1
998 s	C=CCN1C(=O)COc2ccc(-c3nc(NC(=O)c4cccs4)sc3C)cc21
848 s	COC(=O)c1c(NCCCc2ccccc2)c2cc(F)ccc2[nH]c1=O
717 s	O=C(O)CCCNS(=O)(=O)c1ccc2ccccc2c1
719 s	COC(=O)c1ccc(C2CC(=O)NC3=C2C(=O)C(C(=O)OC)C(C)C3)cc1 (stereo unspecified)
593 s	COc1ccc(-c2nc3cnccn3c2Nc2ccc(C(N)=O)cc2)cc1OC
842 s	COCCN1C(=O)c2ccccc2C(C(=O)NCc2ccccc2)C1c1cccs1 (stereo unspecified)
1020 s	Cc1nc(-c2csc(S(=O)(=O)N3CCCC(C(=O)N4CCc5ccccc54)C3)c2)no1 (stereo unspecified)
623 s	CNC(=O)c1nc(C(=O)NCCc2ccc(OC)c(OC)c2)cs1
736 s	CSc1nnc(-c2nn(C)c3c2CN(C(=O)Cc2ccc(C)cc2)CC3)n1C
820 s	COc1cc(NC(=O)CN2C(=O)CCc3cc(Br)ccc32)cc(OC)c1OC
873 s	O=S(=O)(Nc1ccc(F)cc1F)c1ccc2c(c1)-c1oncc1CO2
680 s	Cc1cccc(S(=O)(=O)N2CCc3c(C(=O)NCCCN4CCCCC4)cccc32)c1
784 s	O=C(Nc1cccc2c1N(C(=O)c1ccco1)CCC2)c1ccco1
876 s	COc1ccc(NC(=O)N2CCCC2c2nc(-c3ccc(OC)cc3)no2)cc1 (stereo unspecified)
569 s	COCCN1C(=O)CCc2cc(NS(=O)(=O)c3ccc(OC)c(OC)c3)ccc21
990 s	COc1cccc(CNC(=O)C2(C)CCCN(C(=O)Nc3cc(Cl)ccc3OC)C2)c1 (stereo unspecified)

RP-LC retention time	Compound
679 s	Cc1ccn2cc(-c3ccc(NS(=O)(=O)c4cccc(Cl)c4)cc3)nc2n1
894 s	CCOCCOC(=O)C1=C(C)NC2=C(C(=O)C(C(=O)OC)C(C)C2)C1c1cccc(F)c1 (stereo unspecified)
931 s	Cc1ccc(C)c(NC(=O)Cn2c(=O)n(-c3ccc(F)cc3)c(=O)c3c2cc(C)n3C)c1
880 s	O=C(Nc1cccc(N2CC(C(=O)Nc3ccc(C(F)(F)F)cc3)CC2=O)c1)C1CCC1 (stereo unspecified)
722 s	Cn1c(C2CCN(S(=O)(=O)c3ccc(F)c(Cl)c3)CC2)cc(=O)n2nccc12
619 s	CCOc1cccc(CN2Cc3ccccc3OC3(CCN(CCOC)CC3)C2)c1
725 s	COc1cccc(NC(=O)Cn2cnc(-c3noc(C4CC4)n3)c2)c1
870 s	Cc1ccc(N2CCC(NC(=O)Nc3ccccc3)C2=O)cc1C (stereo unspecified)
730 s	O=C(Nc1nnc(C2CC(=O)N(c3ccc(F)cc3)C2)o1)c1cccc(F)c1 (stereo unspecified)
1120 s	Cc1cc(=O)n(CC(=O)Nc2ccc(F)cc2)c(-c2ccc(Cl)cc2)n1
1380 s	CCn1c(=O)c(N2CCCC(C(=O)N3CCN(c4cc(C)ccc4C)CC3)C2)nc2ccccc21 (stereo unspecified)
884 s	CCOc1ccc(NC(=O)c2nc(C)oc2C)cc1
840 s	COC(=O)c1c(NCc2ccc(C(F)(F)F)cc2)c2cc(F)ccc2[nH]c1=O
721 s	CCn1ccc2c(cc(C(=O)Nc3ccc4c(c3)OCCO4)n2C)c1=O
861 s	COc1cccc(-n2c(=O)c3sccc3n(Cc3nc(-c4ccccc4OC)no3)c2=O)c1
870 s	COc1ccc(-c2noc(Cn3ccn(-c4cc(C)cc(C)c4)c(=O)c3=O)n2)cc1
948 s	COc1ccc(-c2ncc3c(n2)CCN(C(=O)Nc2ccccc2Cl)C3)cc1
818 s	O=C(NC1CCCCCC1)c1ccc(CN2C(=O)C3CCCN3C(=O)c3ccccc32)cc1 (stereo unspecified)
845 s	COCCN1C(=O)c2ccccc2C(C(=O)NCCc2c[nH]c3ccccc23)C12CCCC2 (stereo unspecified)
834 s	COc1ccc(CNC2=NCCNC23CCN(S(=O)(=O)c2c(C)cc(C)cc2C)CC3)cc1
